What was measured:
K. pneumoniae ST258 [1] = settings: checkerboard
Procedure: (§1) The potential synergistic effects in peptidomimetic-antibiotic combinations were assessed by using a two-dimensional checkerboard assay (Garcia, [2010]). Briefly, twofold dilutions of peptide and antibiotic were prepared in MBH II media along the X- and Y-axis, respectively, in 96-well plates. The inoculum was added to the plates, and subsequently these were incubated for 18–20 h. All steps for inoculum preparation and broth microdilution were in accordance with the CLSI guidelines (Clinical and Laboratory Standards Institute, [2013]). The fractional inhibitory concentration index (FICI) was calculated as [MICA(A+B)/MICA(alone)] + [MICB(A+B)/MICB(alone)], where MICA(A+B) represents the MIC of antibiotic (A) in combination with peptidomimetic (B), while MICB(A+B) represents the MIC of peptidomimetic (B) in combination with antibiotic (A). MICA(alone) and MICB(alone) represent the MIC of each compound individually. FICI values of ≤0.5 were interpreted as synergy.

P. aeruginosa ATCC 27853 = settings: P. aeruginosa ATCC 27853; checkerboard
Procedure: as §1

E. coli ST131 [2] = settings: checkerboard
Procedure: as §1

K. pneumoniae ST258 [3] = assay: Potentiation of additional antibiotics (COMPAN1F plates), MIC; format: cell-based, Klebsiella pneumoniae
Procedure: (§2) Minimal inhibitory concentrations (MICs) of peptidomimetics, antibiotics and their combinations were determined by broth microdilution according to the Clinical Laboratory Standards Institute performance standards (Clinical and Laboratory Standards Institute, [2013]). […] Since rifampicin and azithromycin mainly are used to treat infections with Gram-positive pathogens only CLSI clinical breakpoints were available for such bacteria. […] Potentiation of additional antibiotics by peptidomimetics was determined by using commercial 96-well plates containing varied concentrations of standard antibiotics (COMPAN1F; Trek Diagnostic Systems Inc.). The peptidomimetics were added immediately prior to inoculation with pathogen, and then MICs were determined as above. The MICs of peptidomimetic/antibiotic combinations were determined according to the method above, and the concentration ratios were selected based upon checkerboard results with 2:1 and 1:4 ratio of peptidomimetic with rifampicin or azithromycin, respectively. Minimal bactericidal concentrations (MBCs) were determined by using growth-curve assay plates. MIC plates were prepared as above, and then the plates were incubated at 37°C with continuous shaking. Growth was recorded at 10 min intervals as optical density (OD) at 600 nm during 24 h. At 24 h, for wells without growth, a sample was diluted 10-fold in sterile saline (0.9% sodium chloride) and plated onto MHA, following CLSI guidelines (Clinical and Laboratory Standards Institute, [1999]).

[4] = system: E. coli clinical isolates and reference strains; assay: MIC of fixed-ratio peptidomimetic 1-antibiotic combinations in clinical isolates and reference strains; format: cell-based, Escherichia coli; settings: in combination with 0.5–1 μM peptidomimetic 1
Source text: (§3) Bacterial strains used in this study comprise MDR clinical isolates of E. coli ST131 (Cerquetti et al., [2010]) and K. pneumoniae ST258 (Jana et al., [2017]), and American type culture collection (ATCC) strains: ATCC 25922 (E. coli), ATCC 13883 (K. pneumoniae), and ATCC 27853 (P. aeruginosa). Additional clinical isolates of E. coli, K. pneumoniae, and P. aeruginosa resistant to β-lactams (including carbapenems and cephalosporins) were provided by Laurent Poirel, Université de Fribourg, Switzerland. The following growth media was routinely used for bacterial culturing: Luria-Burtani (LB), cation-adjusted Mueller-Hinton agar (MHA) and broth (MHB II). All assays were performed in cation-adjusted MHA or MHB II. Antibiotics were purchased from Sigma-Aldrich and the peptidomimetic collection (Table S1) was curated and provided by Henrik Franzyk. […]
(§4) Minimal inhibitory concentrations (MICs) of peptidomimetics, antibiotics and their combinations were determined by broth microdilution according to the Clinical Laboratory Standards Institute performance standards (Clinical and Laboratory Standards Institute, [2013]). […] Potentiation of additional antibiotics by peptidomimetics was determined by using commercial 96-well plates containing varied concentrations of standard antibiotics (COMPAN1F; Trek Diagnostic Systems Inc.). The peptidomimetics were added immediately prior to inoculation with pathogen, and then MICs were determined as above. The MICs of peptidomimetic/antibiotic combinations were determined according to the method above, and the concentration ratios were selected based upon checkerboard results with 2:1 and 1:4 ratio of peptidomimetic with rifampicin or azithromycin, respectively. Minimal bactericidal concentrations (MBCs) were determined by using growth-curve assay plates. […] Growth was recorded at 10 min intervals as optical density (OD) at 600 nm during 24 h. […]

E. coli ST131 [5] = assay: Potentiation of additional antibiotics (COMPAN1F plates), MIC; format: cell-based, Escherichia coli
Procedure: as §2

[6] = system: P. aeruginosa clinical isolates and reference strains; assay: MIC of fixed-ratio peptidomimetic 1-antibiotic combinations in clinical isolates and reference strains; format: cell-based, Pseudomonas aeruginosa; settings: with 1–8 μM of 1
Source text: as §3, §4

P. aeruginosa ATTC 27853 = settings: P. aeruginosa ATTC 27853; growth-curve assay
Procedure: as §2

K. pneumoniae ST258 [7] = settings: K. pneumoniae ST258; growth-curve assay
Procedure: as §2

E. coli ST131 [8] = settings: E. coli ST131; growth-curve assay
Procedure: as §2

Antibiotic MIC alone (K. pneumoniae ST258 [1]): 16 µg/mL
Antibiotic MIC alone (P. aeruginosa ATCC 27853): 32 µg/mL
Antibiotic MIC alone (E. coli ST131 [2]): 4 µg/mL
MIC of antibiotic in presence of peptidomimetic 1 (K. pneumoniae ST258 [3]; + 1 μM peptidomimetic 1): ≤1 µg/mL
MIC of antibiotic in presence of peptidomimetic 1 (K. pneumoniae ST258 [3]; + 1 μM peptidomimetic 1, listed as rifampicin): below 1 μg/mL
MIC of antibiotic in presence of peptidomimetic 15 (K. pneumoniae ST258 [3]; + 1 μM peptidomimetic 15): ≤1 µg/mL
MIC of antibiotic in presence of peptidomimetic 15 (K. pneumoniae ST258 [3]; + 1 μM peptidomimetic 15, listed as rifampicin): below 1 μg/mL
MIC of antibiotic in presence of peptidomimetic 26 (K. pneumoniae ST258 [3]; + 1 μM peptidomimetic 26): ≤1 µg/mL
MIC of antibiotic in presence of peptidomimetic 26 (K. pneumoniae ST258 [3]; + 1 μM peptidomimetic 26, listed as rifampicin): below 1 μg/mL
MIC (K. pneumoniae ST258 [3]; Klebsiella pneumoniae, no peptidomimetic, read-out: MIC of antibiotic alone): > 2 µg/mL
MIC of antibiotic alone (K. pneumoniae ST258 [3]; no peptidomimetic): >2 µg/mL
MIC of antibiotic in presence of peptidomimetic 26 (E. coli ST131 [5]; + 0.25 μM peptidomimetic 26): ≤1 µg/mL
MIC of antibiotic in presence of peptidomimetic 26 (E. coli ST131 [5]; + 0.25 μM peptidomimetic 26, listed as rifampicin): below 1 μg/mL
MIC of antibiotic in presence of peptidomimetic 1 (E. coli ST131 [5]; + 0.5 μM peptidomimetic 1): ≤1 µg/mL
MIC of antibiotic in presence of peptidomimetic 1 (E. coli ST131 [5]; + 0.5 μM peptidomimetic 1, listed as rifampicin): below 1 μg/mL
MIC of antibiotic in presence of peptidomimetic 15 (E. coli ST131 [5]; + 0.5 μM peptidomimetic 15): ≤1 µg/mL
MIC of antibiotic in presence of peptidomimetic 15 (E. coli ST131 [5]; + 0.5 μM peptidomimetic 15, listed as rifampicin): below 1 μg/mL
MIC (E. coli ST131 [5]; Escherichia coli, no peptidomimetic, read-out: MIC of antibiotic alone): > 2 µg/mL
MIC of antibiotic alone (E. coli ST131 [5]; no peptidomimetic): >2 µg/mL
MIC of antibiotic in combination, P. aeruginosa isolates (typical) [6]: 0.5 µg/mL
MIC (antibiotic alone) (P. aeruginosa ATTC 27853): >64 µg/mL
MIC (antibiotic alone) (K. pneumoniae ST258 [7]): >16 µg/mL
MIC (antibiotic alone) (E. coli ST131 [8]): >4 µg/mL
Compound: CO[C@H]1/C=C/O[C@@]2(C)Oc3c(C)c(O)c4c(O)c(c(/C=N/N5CCN(C)CC5)c(O)c4c3C2=O)NC(=O)/C(C)=C\C=C\[C@H](C)[C@H](O)[C@@H](C)[C@@H](O)[C@@H](C)[C@H](OC(C)=O)[C@@H]1C [Rifampicin, rifampicin]
Antibiotic concentration to which most E. coli isolates proved susceptible in combination [4]: 0.25 to 0.5 µg/mL
MBC (antibiotic alone) (P. aeruginosa ATTC 27853): >64 µg/mL
MBC (antibiotic alone) (K. pneumoniae ST258 [7]): >16 µg/mL
MBC (antibiotic alone) (E. coli ST131 [8]): >4 µg/mL

Source: publication PMC6615261, “Repurposing Azithromycin and Rifampicin Against Gram-Negative Pathogens by Combination With Peptidomimetics” (Frontiers in Cellular and Infection Microbiology, 2019)
